Measured values reported in article PMC10272112 (Nature Communications, 2023).

Biological target: T1, HDAC6-catalytic domain 2 (HDAC6CD2) (Homo sapiens, UniProt Q9UBN7)
T1 construct: HDAC6-catalytic domain 2 (HDAC6CD2); expressed in transfected cells
T1 sequence (Q9UBN7 482-800 limits assumed): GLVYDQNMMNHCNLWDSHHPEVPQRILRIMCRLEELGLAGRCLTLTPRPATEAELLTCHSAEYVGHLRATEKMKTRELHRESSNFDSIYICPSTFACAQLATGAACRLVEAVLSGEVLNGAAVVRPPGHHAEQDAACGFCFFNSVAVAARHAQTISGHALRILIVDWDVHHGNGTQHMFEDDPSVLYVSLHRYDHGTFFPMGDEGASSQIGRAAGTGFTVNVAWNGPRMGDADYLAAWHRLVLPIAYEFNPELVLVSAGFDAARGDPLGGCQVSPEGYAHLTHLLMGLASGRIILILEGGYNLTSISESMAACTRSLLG
Test: NanoBRET intracellular target engagement assay
Assay type: cell-based
Protocol: For the production of transfected HeLa mono-clones stably expressing HDAC-nanoBRET fusion proteins of HDAC10 and HDAC6-catalytic domain 2 (HDAC6CD2), plasmids expressing a fusion of HDAC10 with nanoluciferase were obtained from Promega (N2170). HeLa cells (0.75 × 10^6) were seeded in a 6 cm dish and were transfected with a mix of 10 μg plasmid and 3 μL Fugene in 200 μL OptiMEM after 24 h. The intracellular target engagement assay on HDAC10 and HDAC6CD2 was performed using the NanoBRET™ Target Engagement Intracellular HDAC Assay (Promega N2081 and N2090) as described by the kit manufacturer in a 96-well plate (Corning 3600) format with 2 × 10^4 cells per well and a tracer concentration of 0.3 μM. Inhibitors were dosed with a D300e Digital Dispenser (Tecan). DMSO concentrations were normalized to 0.5% for all wells. After dosing, assay plates were shaken at 800 rpm and incubated at 37 °C for 2 h followed by measurement of 450 nm and 650 nm luminescence (80 nm bandwidth) at room temperature with a CLARIOstar (BMG Labtech) plate reader 2 min after NanoLuc substrate addition.

O=C(O)CCCCC1CCSS1 (racemic) [(R/S)-LA, (R/S)-lipoic acid]
potency of intracellular target engagement and HDAC substrate hyperacetylation (peer review response): 50 to 300 µM

NC(=O)CCCCC1CCSS1 (racemic) [(R/S)-LM, (R/S)-lipoamide]
intracellular binding to HDAC6 (HeLa cells): dose-dependent intracellular binding | IC50 (HeLa cells, 2 h, read-out: concentration of half maximal HDAC6 inhibition): 35 µM
